Data as given in US8957045B2, “Nucleoside phosphoramidates” (Gilead Pharmasset LLC, priority 2008, dated 2015).
Where two headings read alike, the source gives them in different places.

Assays:
[1] = system: HCV replicon RNA-containing Huh7 cells (clone A cells); test: HCV replicon assay; assay type: cell-based; conditions: 4 days incubation, replicon RNA by RT-PCR, EC90 = 1-log10 reduction (ΔCt of 3.3), read-out: CloneA EC90
Experimental: HCV replicon RNA-containing Huh7 cells (clone A cells; Apath, LLC, St. Louis, Mo.) were kept at exponential growth in Dulbecco's modified Eagle's medium (high glucose) containing 10% fetal bovine serum, 4 mM L-glutamine and 1 mM sodium pyruvate, 1× nonessential amino acids, and G418 (1,000 μg/ml). Antiviral assays were performed in the same medium without G418. Cells were seeded in a 96-well plate at 1,500 cells per well, and test compounds were added immediately after seeding. Incubation time 4 days. At the end of the incubation step, total cellular RNA was isolated (RNeasy 96 kit; Qiagen). Replicon RNA and an internal control (TaqMan rRNA control reagents; Applied Biosystems) were amplified in a single-step multiplex RT-PCR protocol as recommended by the manufacturer. The HCV primers and probe were designed with Primer Express software (Applied Biosystems) and covered highly conserved 5′-untranslated region (UTR) sequences (sense primer: 5′-AGCCATGGCGTTAGTA(T)GAGTGT-3′ (SEQ ID NO:1); antisense primer: 5′-TTCCGCAGACCΔCTATGG-3′ (SEQ ID NO:2); and probe: 5′-FAM-[…]-TAMRA-3′ (SEQ ID NO:3)).
To express the antiviral effectiveness of a compound, the threshold RT-PCR cycle of the test compound was subtracted from the average threshold RT-PCR cycle of the no-drug control (ΔCtHCV). A ΔCt of 3.3 equals a 1-log 10 reduction (equal to the 90% effective concentration [EC90]) in replicon RNA levels. The cytotoxicity of the test compound could also be expressed by calculating the ΔCTRNA values. The ΔΔCt specificity parameter could then be introduced (ΔCtHCV-ΔCtRNA), in which the levels of HCV RNA are normalized for the rRNA levels and calibrated against the no-drug control.

With COC(=O)[C@H](C)NP(=O)(OC[C@H]1O[C@@H](n2cnc3c(N4CCC4)nc(N)nc32)[C@](C)(F)[C@@H]1O)Oc1ccccc1 (stereo partly shown) [Compound 12] the EC90 [1] was 70 nM.

Compound COc1nc(N)nc2c1ncn2[C@@H]1O[C@H](COP(=O)(N[C@@H](C)C(=O)OC(C)C)Oc2ccccc2)[C@@H](O)[C@@]1(C)F (stereo partly drawn) [Compound 11, (2S)-isopropyl 2-((((2R,3R,4R,5R)-5-(2-amino-6-methoxy-9H-purin-9-yl)-4-fluoro-3-hydroxy-4-methyltetrahydrofuran-2-yl)methoxy) (phenoxy)phosphorylamino)propanoate] has an EC90 ([1]; Hepatitis C virus, Huh-7, 96 h) of 20 nM.

C[C@H](NP(=O)(OC[C@H]1O[C@@H](n2cnc3c(O)nc(N)nc32)[C@](C)(F)[C@@H]1O)Oc1ccccc1)C(=O)OC1CCCC1 (stereo partly drawn) [Compound 14, (2S)-cyclopentyl 2-((((2R,3R,4R,5R)-5-(2-amino-6-hydroxy-9H-purin-9-yl)-4-fluoro-3-hydroxy-4-methyltetrahydrofuran-2-yl)methoxy) (phenoxy)phosphorylamino)propanoate] showed an EC90 ([1]; Hepatitis C virus, Huh-7, 96 h) of 130 nM and a melting point of 133 to 150 °C.
